According to US20230279025A1, “KRAS G12D INHIBITORS” (Mirati Therapeutics, Inc., priority 2020, published 2023):
Structures can show the parent of a compound that is named as a salt.

Tests used:
[1] = biological target: T1, KRas G12D (Homo sapiens (Human), UniProt P01116, G12D); test: KRas G12D Surface Plasmon Resonance (SPR) Binding Assay; settings: Biacore T200, immobilized biotinylated KRAS protein, 1:1 binding model
Target sequence in this assay (P01116-2 other isoform, or with tags, fused parts or gaps G12D): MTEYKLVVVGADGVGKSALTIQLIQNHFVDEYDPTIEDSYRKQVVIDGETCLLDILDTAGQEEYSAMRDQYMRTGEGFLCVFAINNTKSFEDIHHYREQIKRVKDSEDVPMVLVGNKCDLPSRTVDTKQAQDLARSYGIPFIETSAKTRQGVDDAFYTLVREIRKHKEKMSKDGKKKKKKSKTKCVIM

[2] = biological target: T1, KRas G12D; test: KRas G12D Binding Assay (TR-FRET displacement of Cy5 labelled tracer); settings: GDP-loaded KRAS G12D (amino acids 1:169), 60 minute incubation at 22° C.
Procedure: After a 60 minute incubation at 22° C., the reaction was measured using a PerkinElmer EnVision multimode plate reader via TR-FRET dual wavelength detection, and the percent of control (POC) calculated using a ratiometric emission factor. […] The POC values were fit to a 4-parameter logistic curve and the IC50 value was determined as the concentration where the curve crosses 50 POC.
ND stands for “not determined.”
Target sequence in this assay (P01116 other isoform, or with tags, fused parts or gaps G12D): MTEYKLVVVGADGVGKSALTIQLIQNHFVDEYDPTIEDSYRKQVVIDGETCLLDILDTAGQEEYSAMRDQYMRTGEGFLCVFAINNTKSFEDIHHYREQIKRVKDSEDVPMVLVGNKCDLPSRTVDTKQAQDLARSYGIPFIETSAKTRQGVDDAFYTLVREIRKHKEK

| SMILES | Kd [1] | IC50 [2] |
| --- | --- | --- |
| Oc1cc(-c2ncc3c(N4C[C@H]5CC[C@@H](C4)N5)nc(N4CCC4)nc3c2F)c2ccccc2c1 [Example 119, 4-(2-(azetidin-1-yl)-4-((1R,5S)-3,8-diazabicyclo[3.2.1]octan-3-yl)-8-fluoropyrido[4,3-d]pyrimidin-7-yl)naphthalen-2-ol 2,2,2-trifluoroacetate] | 511 nM | 684 nM |
| Fc1c(-c2cccc3cccc(Cl)c23)ncc2c(N3C[C@H]4CC[C@@H](C3)N4)nc(OCC34CCCCN3CCC4)nc12 (stereo partly drawn) [Example 54, 4-((1R,5S)-3,8-diazabicyclo[3.2.1]octan-3-yl)-7-(8-chloronaphthalen-1-yl)-8-fluoro-2-((hexahydroindolizin-8a(1H)-yl)methoxy)pyrido[4,3-d]pyrimidine] | 118 nM | 68.7 nM |
| Cc1nccn1CCOc1nc(N2CC3CCC(C2)N3)c2cnc(-c3cc(O)cc4ccccc34)c(F)c2n1 [Example 84, 4-(4-((1R,5S)-3,8-diazabicyclo[3.2.1]octan-3-yl)-8-fluoro-2-(2-(2-methyl-1H-imidazol-1-yl)ethoxy)pyrido[4,3-d]pyrimidin-7-yl)naphthalen-2-ol] | 14.4 nM | 31.7 nM |
| C[C@H](CN(C)C)Oc1nc(N2C[C@H]3CC[C@@H](C2)N3)c2cnc(-c3cc(O)cc4ccccc34)c(F)c2n1 [Example 17, 4-(4-((1R,5S)-3,8-diazabicyclo[3.2.1]octan-3-yl)-2-(((R)-1-(dimethylamino)propan-2-yl)oxy)-8-fluoropyrido[4,3-d]pyrimidin-7-yl)naphthalen-2-ol] | 2210 nM | 666 nM |
| [O-][S+]1CCC(Oc2nc(N3C[C@H]4CC[C@@H](C3)N4)c3cnc(-c4cc(O)cc5ccccc45)c(F)c3n2)CC1 (stereo partly drawn) [Example 82, 4-((4-((1R,5S)-3,8-diazabicyclo[3.2.1]octan-3-yl)-8-fluoro-7-(3-hydroxynaphthalen-1-yl)pyrido[4,3-d]pyrimidin-2-yl)oxy)tetrahydro-2H-thiopyran 1-oxide] | 215 nM | 227 nM |
| Oc1cc(-c2ncc3c(N4C[C@H]5CC[C@@H](C4)N5)nc(OCCc4ccccc4F)nc3c2F)c2ccccc2c1 [Example 67, 4-(4-((1R,5S)-3,8-diazabicyclo[3.2.1]octan-3-yl)-8-fluoro-2-(2-fluorophenethoxy)pyrido[4,3-d]pyrimidin-7-yl)naphthalen-2-ol] | 1150 nM | 1250 nM |
| CN1CC(COc2nc(N3C[C@H]4CC[C@@H](C3)N4)c3cnc(-c4cccc5cccc(Cl)c45)c(F)c3n2)CC1=O (stereo partly drawn) [Example 131, 4-(((4-((1R,5S)-3,8-diazabicyclo[3.2.1]octan-3-yl)-7-(8-chloronaphthalen-1-yl)-8-fluoropyrido[4,3-d]pyrimidin-2-yl)oxy)methyl)-1-methylpyrrolidin-2-one] | 1550 nM | 424 nM |
| Oc1cc(-c2ncc3c(N4C[C@H]5CC[C@@H](C4)N5)nc(OCCCC(F)(F)F)nc3c2F)c2ccccc2c1 [Example 38, 4-(4-((1R,5S)-3,8-diazabicyclo[3.2.1]octan-3-yl)-8-fluoro-2-(4,4,4-trifluorobutoxy)pyrido[4,3-d]pyrimidin-7-yl)naphthalen-2-ol] | 750 nM | 174 nM |
| CC(=O)N1CCC(Oc2nc(N3C[C@H]4CC[C@@H](C3)N4)c3cnc(-c4cc(O)cc5ccccc45)c(F)c3n2)CC1 [Example 78, 1-(4-((4-((1R,5S)-3,8-diazabicyclo[3.2.1]octan-3-yl)-8-fluoro-7-(3-hydroxynaphthalen-1-yl)pyrido[4,3-d]pyrimidin-2-yl)oxy)piperidin-1-yl)ethan-1-one] | 368 nM | 358 nM |
| Cc1c(-c2cc(O)cc3ccccc23)ncc2c(N3C[C@H]4CC[C@@H](C3)N4)nc(OC[C@@H]3CCCN3C)nc12 [Example 190, 4-(4-((1R,5S)-3,8-diazabicyclo[3.2.1]octan-3-yl)-8-methyl-2-(((S)-1-methylpyrrolidin-2-yl)methoxy)pyrido[4,3-d]pyrimidin-7-yl)naphthalen-2-ol] | 76.1 nM | 64.1 nM |
| CN1CCC[C@H]1COc1nc(N2C[C@H]3CC[C@@H](C2)N3)c2cnc(-c3cncc4cccc(Cl)c34)c(F)c2n1 [Example 151, 4-((1R,5S)-3,8-diazabicyclo[3.2.1]octan-3-yl)-7-(5-chloroisoquinolin-4-yl)-8-fluoro-2-(((S)-1-methylpyrrolidin-2-yl)methoxy)pyrido[4,3-d]pyrimidine] | 448 nM | 388 nM |
| CO[C@@H]1C[C@@H]2CN(c3nc(OC[C@@]45CCCN4C[C@H](F)C5)nc4c(F)c(-c5cccc6cccc(Cl)c56)ncc34)C[C@H]1N2 [Example 397, 7-(8-chloronaphthalen-1-yl)-8-fluoro-2-((2-fluorotetrahydro-1H-pyrrolizin-7a(5H)-yl)methoxy)-4-((1R,5R,6R)-6-methoxy-3,8-diazabicyclo[3.2.1]octan-3-yl)pyrido[4,3-d]pyrimidine] | 183 nM | 887 nM |
| CCC1(N)CN(c2nc(N3C[C@H]4CC[C@@H](C3)N4)c3cnc(-c4cc(O)cc5ccccc45)c(F)c3n2)C1 [Example 126, 4-(2-(3-amino-3-ethylazetidin-1-yl)-4-((1R,5S)-3,8-diazabicyclo[3.2.1]octan-3-yl)-8-fluoropyrido[4,3-d]pyrimidin-7-yl)naphthalen-2-ol] | 16.1 nM | 9.9 nM |
| OCCCOc1nc(N2C[C@H]3CC[C@@H](C2)N3)c2cnc(-c3cc(O)cc4ccccc34)c(F)c2n1 [Example 75, 4-(4-((1R,5S)-3,8-diazabicyclo[3.2.1]octan-3-yl)-8-fluoro-2-(3-hydroxypropoxy)pyrido[4,3-d]pyrimidin-7-yl)naphthalen-2-ol] | 304 nM | 240 nM |
| Cc1cccc2cccc(-c3cc4nc(OC[C@@H]5CCCN5C)nc(N5C[C@H]6CC[C@@H](C5)N6)c4cn3)c12 [Example 116, 4-((1R,5S)-3,8-diazabicyclo[3.2.1]octan-3-yl)-7-(8-methylnaphthalen-1-yl)-2-(((S)-1-methylpyrrolidin-2-yl)methoxy)pyrido[4,3-d]pyrimidine] | 3630 nM | 1440 nM |
| CO[C@@H]1CN2CCC[C@]2(COc2nc(N3C[C@H]4CC[C@@H](C3)N4)c3cnc(-c4cccc5cccc(Cl)c45)c(F)c3n2)C1 [Example 219, 4-((1R,5S)-3,8-diazabicyclo[3.2.1]octan-3-yl)-7-(8-chloronaphthalen-1-yl)-8-fluoro-2-((2-methoxytetrahydro-1H-pyrrolizin-7a(5H)-yl)methoxy)pyrido[4,3-d]pyrimidine bis-hydrochloride] | 8.1 nM | 8.1 nM |
| Oc1cc(-c2ncc3c(N4C[C@H]5CC[C@@H](C4)N5)nc(OCCc4ncccn4)nc3c2F)c2ccccc2c1 [Example 7, 4-(4-((1R,5S)-3,8-diazabicyclo[3.2.1]octan-3-yl)-8-fluoro-2-(2-(pyrimidin-2-yl)ethoxy)pyrido[4,3-d]pyrimidin-7-yl)naphthalen-2-ol] | 464 nM | 1870 nM |
| OC[C@H](O)COc1nc(N2C[C@H]3CC[C@@H](C2)N3)c2cnc(-c3cccc4cccc(Cl)c34)c(F)c2n1 [Example 55, (S)-3-((4-((1R,5S)-3,8-diazabicyclo[3.2.1]octan-3-yl)-7-(8-chloronaphthalen-1-yl)-8-fluoropyrido[4,3-d]pyrimidin-2-yl)oxy)propane-1,2-diol] | 22400 nM | 6130 nM |
| Cc1cccc(F)c1-c1ncc2c(N3C[C@H]4CC[C@@H](C3)N4)nc(OCCc3nccn3C)nc2c1F [Example 316, 4-((1R,5S)-3,8-diazabicyclo[3.2.1]octan-3-yl)-8-fluoro-7-(2-fluoro-6-methylphenyl)-2-(2-(1-methyl-1H-imidazol-2-yl)ethoxy)pyrido[4,3-d]pyrimidine] | 157000 nM | > 10000 nM |
| CN1CCC[C@H]1COc1nc(N2CC3CCC(C)(C2)N3)c2cnc(-c3cc(O)cc4ccccc34)c(F)c2n1 (stereo partly drawn) [Example 156, 4-(8-fluoro-4-(1-methyl-3,8-diazabicyclo[3.2.1]octan-3-yl)-2-(((S)-1-methylpyrrolidin-2-yl)methoxy)pyrido[4,3-d]pyrimidin-7-yl)naphthalen-2-ol bis(2,2,2-trifluoroacetate)] | 500000 nM | 9.1 nM |
| Oc1cc(-c2ncc3c(N4C[C@H]5CC[C@@H](C4)N5)nc(OCC45CCCN4CCC5)nc3c2F)c2ccccc2c1 [Example 109, 4-(4-((1R,5S)-3,8-diazabicyclo[3.2.1]octan-3-yl)-8-fluoro-2-((tetrahydro-1H-pyrrolizin-7a(5H)-yl)methoxy)pyrido[4,3-d]pyrimidin-7-yl)naphthalen-2-ol bis(2,2,2-trifluoroacetate)] | > 500000 nM | 0.5 nM |
| Oc1cc(-c2ncc3c(N4C[C@H]5CC[C@@H](C4)N5)nc(OCCCN4CCOCC4)nc3c2F)c2ccccc2c1 [Example 22, 4-(4-((1R,5S)-3,8-diazabicyclo[3.2.1]octan-3-yl)-8-fluoro-2-(3-morpholinopropoxy)pyrido[4,3-d]pyrimidin-7-yl)naphthalen-2-ol] | 19.6 nM | 50.3 nM |
| CN(C)C1CN(c2nc(N3C[C@H]4CC[C@@H](C3)N4)c3cnc(-c4cccc5cccc(Cl)c45)c(F)c3n2)C1 [Example 122, 1-(4-((1R,5S)-3,8-diazabicyclo[3.2.1]octan-3-yl)-7-(8-chloronaphthalen-1-yl)-8-fluoropyrido[4,3-d]pyrimidin-2-yl)-N,N-dimethylazetidin-3-amine] | 3420 nM | 3270 nM |
| COCCOc1nc(N2C[C@H]3CC[C@@H](C2)N3)c2cnc(-c3cc(O)cc4ccccc34)c(F)c2n1 [Example 70, 4-(4-((1R,5S)-3,8-diazabicyclo[3.2.1]octan-3-yl)-8-fluoro-2-(2-methoxyethoxy)pyrido[4,3-d]pyrimidin-7-yl)naphthalen-2-ol] | 417 nM | 356 nM |
